Data reported in patent US4886915A, “Water soluble organic ammonium per halides” (priority 1988, dated 1989).

Key:
[1] = Titration for oxidizable bromine (Standard Methods for the Examination of Water and Waste Water, Method 408A); settings: for Ox. Br2 of the sample used for vapor pressure: Table 9; for Tit. Ox. Br2: Table 1, aqueous solution prepared from 48% HBr
[2] = Vapor pressure of aqueous organic ammonium perbromides (isoteniscope); settings: for vapor pressure of bromine: 26° C., bromine water approx. 3.5% by weight, NaBr3 and perbromides roughly 40% Br2; for Vp: @ 26° C., Table 9
[3] = Perbromide closed-bottle shelf life stability at ambient temperature; settings: for Initial Ox. Br2: time zero
Method: (§1) In order to determine the shelf life stability of the perbromide solutions, a series of studies were conducted to determine the percent bromine lost over time. The following tables shown below list the perbromides studied and the percent oxidizable bromine lost over time. The perbromides studied were kept in closed bottles in ambient conditions (Table 7) and at 50° C.

[4] = Water solubility of perbromides; settings: for Solubility: in water, Tables 2 and 3
[5] = Perbromide closed-bottle shelf life stability at 50° C.; settings: for Initial Ox. Br2: time zero
Method: as §1

[6] = ambient, time elapsed 24 months (#3 17, #11 16, #23 22 months)
[7] = ambient, time elapsed 24 months (#3 17, #11 16, #23 22 months), 1.0512e+06 min
[8] = Table 2, perbromide separated as bottom viscous liquid phase
[9] = 50° C., time elapsed 40 (months)
[10] = Table 4, concentrated (74.1% hydrobromide, #17) and anhydrous (100%, #18-20)

## 1,6-Hexanediammonium [compound 16]
[1]; Table 3, crystalline perbromide precipitated out of aqueous solution
  Tit. Ox. Br: 51.8 % by Weight

## BrBr [compound 35, Pure Bromine]
[2]
  vapor pressure of bromine: approximately 220 mm Hg
  Vp: 223 mmHg
[1]
  Ox. Br2 of the sample used for vapor pressure: 100 % by Weight

## Bromine in H2 O [compound 34]
[2]
  vapor pressure of bromine: 210 mm Hg
  Vp: 210 mmHg
[1]
  Ox. Br2 of the sample used for vapor pressure: 3.5 % by Weight

## Dibutylammonium Perbromide [compound 11]
[3]; [6]
  Change in % Br2: 2.1%
  Final Ox. Br2: 41.1 % by Weight
[3]; [7]
  Relative Change in % Br2: 4.9%
[3]; ambient
  Initial Ox. Br2: 43.2 % by Weight
[4]
  Solubility: 1.0 g./100 g H2O
[2]
  Vp: 38 mmHg
[1]; [8]
  Tit. Ox. Br: 40.9 % by Weight

## Diethanolammonium Perbromide [Compound #4]
[3]; [6]
  Change in % Br2: 2.0%
  Final Ox. Br2: 35.0 % by Weight
[3]; ambient
  Initial Ox. Br2: 37.0 % by Weight
[5]; [9]
  Change in % Br2: 7.0%
  Final Ox. Br2: 30.0 % by Weight
[5]; 50° C.
  Initial Ox. Br2: 37.0 % by Weight
[2]
  Vp: 49 mmHg

## Diethanolammonium Perbromide [Compound #20]
[4]
  water solubility (in words): very soluble in water
[1]; [10]
  Tit. Ox. Br: 45.3 % by Weight

## Diethylethanolammonium [compound 14, reference compound]
[4]
  water solubility (in words): only sparingly soluble in water
  Solubility: 0.1 g./100 g H2O
[1]; [8]
  Tit. Ox. Br: 42.3 % by Weight

## Dimethylethanolammonium Perbromide [Compound #7, reference compound]
[2]
  Vp: 30 mmHg

## Dipropylammonium Perbromide [compound 10]
[1]; [8]
  Tit. Ox. Br: 45.1 % by Weight

## Ethanolammonium Perbromide [Compound #1]
[3]; 17520 h
  Relative Change in % Br2: 4.0%
[3]; [6]
  Change in % Br2: 1.6%
  Final Ox. Br2: 38.5 % by Weight
[3]; ambient
  Initial Ox. Br2: 40.1 % by Weight
[5]; [9]
  Change in % Br2: 1.8%
  Final Ox. Br2: 39.0 % by Weight
[5]; 50° C.
  Initial Ox. Br2: 40.8 % by Weight
[5]; 29200 h
  Relative Change in % Br2: 4.4%

## Ethanolammonium Perbromide [Compound #17]
[1]; [10]
  Tit. Ox. Br: 47.3 % by Weight

## Ethanolammonium Perbromide [Compound #18]
[1]; [10]
  Tit. Ox. Br: 51.8 % by Weight

## Ethanolammonium Perbromide [Compound #21]
[3]; 17520 h
  Relative Change in % Br2: 2.0%
[5]; 29200 h
  Relative Change in % Br2: 3.1%

## Ethylethanolammonium Perbromide [compound 6]
[1]
  Tit. Ox. Br2: 37.7 % by Weight

## Hexylammonium Perbromide [compound 8]
[1]
  Tit. Ox. Br2: 36.1 % by Weight

## Methylethanolammonium Perbromide [compound 5]
[2]
  Vp: 28 mmHg
[1]
  Tit. Ox. Br2: 39.3 % by Weight
  Ox. Br2 of the sample used for vapor pressure: 39.3 % by Weight

## Octylammonium Perbromide [compound 9]
[1]
  Tit. Ox. Br2: 34.7 % by Weight

## Propylammonium Perbromide [Compound #3]
[3]; [6]
  Change in % Br2: 0.3%
  Final Ox. Br2: 41.0 % by Weight
[3]; [7]
  Relative Change in % Br2: 0.7%
[3]; ambient
  Initial Ox. Br2: 41.3 % by Weight
[5]; [9]
  Change in % Br2: 2.0%
  Final Ox. Br2: 39.0 % by Weight
[5]; 50° C., time elapsed 40 (months), 1.752e+06 min
  Relative Change in % Br2: 4.9%
[5]; 50° C.
  Initial Ox. Br2: 41.0 % by Weight
[2]
  Vp: 36 mmHg
[1]
  Tit. Ox. Br2: 39.3 % by Weight
  Ox. Br2 of the sample used for vapor pressure: 39.3 % by Weight

## Propylammonium Perbromide [Compound #19]
[1]; [10]
  Tit. Ox. Br: 53.2 % by Weight

## Propylammonium Perbromide [compound 22]
[3]; 17520 h
  Relative Change in % Br2: 2.3%
[5]; 29200 h
  Relative Change in % Br2: 2.7%

## Sodium (NaBr3) [compound 33]
[2]
  vapor pressure of bromine: 140 mm Hg
  Vp: 145 mmHg

## Tributylammonium Perbromide [compound 12, reference compound]
[2]
  Vp: 28 mmHg
[1]; [8]
  Tit. Ox. Br: 36.0 % by Weight
[1]
  Ox. Br2 of the sample used for vapor pressure: 37.5 % by Weight
